The values below come from publication PMC3269530 (Journal of Molecular Biology, 2011).

The test system of assay [1] is R277E mutant of ArfA-c(D236A). The assay is classed as binding, M. tuberculosis.
Another assay relates to ArfA-c(D236A). It counts as binding, M. tuberculosis. Conditions: pH 7.

Consider “uridine-5'-diphosphate–MurNAc–L-Ala–D-γ-Glu–m-DAP–D-Ala– D-Ala [UMDP]”, for which, in assay [1], the “changes in the NMR spectrum of the R277E mutant” value was “no changes were observed”. In addition, in the assay with ArfA-c(D236A), the “peak changes in 1H/15N NMR spectrum on addition of peptide” value was “several peak frequency and intensity changes”.
